According to patent US8933099B2, “Monocyclic pyridine derivative” (Eisai R&D Management Co., Ltd., priority 2013, dated 2015):
Where two headings read alike, the source gives them in different places.

What was measured:
[1] = test system: human stomach cancer cell line SNU-16 xenograft; test: Antitumor effect in SNU-16 subcutaneous xenograft model in mice; assay type: in vivo; conditions: oral, once a day for 11 days, tumor volume last day
Excerpt: Human stomach cancer cell line SNU-16, which had been cultured in an RPMI-1640 medium containing 10% FBS, and penicillin and streptomycin, were adjusted to a concentration of 1×10^8 cells/mL with Hanks' Balanced Salt Solution (GIBCO #24020) to prepare a cell suspension, and the suspension was mixed with […] (BD Biosciences, Cat#354234) in a ratio of 1:1 to prepare a cell suspension in a concentration of 5×10^7 cells/ml. The cell suspension was inoculated in a volume of 100 ut into a subcutaneous part of a right flank of nude mice, 6 to 7 weeks of ages (BALB/cAiel-nu/nu, female, Clea Japan Inc.). Seven days after cell inoculation, the shortest diameter and the longest diameter of a tumor in each mouse were measured by using an electronic digital caliper (Digimatie™ caliper, Mitutoyo Corporation), so as to calculate the volume of the tumor in accordance with the following calculation formula: Tumor volume(mm^3)Longest diameter(mm)×Shortest diameter(mm)×Shortest diameter(mm)/2
On the basis of the volumes of tumors obtained on the first day of administration, the nude mice were grouped such that averages of the tumor volumes were substantially equal among the groups. Each test substance was dissolved in DMSO, Tween 80 was added thereto to prepare a solution in a 10-fold concentration and the thus prepared solution was stored at the freezer before use. Immediately before the administration, the stock solution was diluted with a 5% glucose solution to obtain a final administration solution (in which a ratio in % among DMSO, Tween 80 and the 5% glucose solution was 3.5:6.5:90). Each evaluation sample was orally administered to test substance administration group at a volume of 0.4 mL per 20 g of body weight once a day continuously for 11 days, and in a control group, an administration solvent was orally administered under the same conditions. Incidentally, the experiment was conducted on groups each consisting of 5 mice.
With respect to each of the control group and test substance administration group, a ratio of the weight measured on the final day to the weight measured on the first day (relative body weight: RBW) was calculated. If a ratio of the RBW of the test substance administration group/the RBW of the control group is 0.9 or mom, the corresponding test substance administration group was defined as a well-tolerated. In the test substance administration group thus defined as well-tolerated, a ratio of the tumor volume of the test substance-dosing group to the tumor volume of the control group obtained on the last day (TIC) (%) was calculated, and shown in Table 21.

[2] = test system: normal human umbilical vein endothelial cells (HUVEC); test: HUVEC growth inhibition assay (VEGF-induced); assay type: cell-based
Procedure: The absorbance value was measured with ENVISION™ (PerkinElmer Co., Ltd.) at 450 nm. The absorbance values of the wells without adding the test substance but with VEGF addition was defined as 100% and the absorbance values of the wells with neither the test substance nor VEGF addition was defined as 0%.

[3] = test system: human stomach cancer cell line SNU-16 (FGFR2 gene amplification); test: SNU-16 growth inhibition assay; assay type: cell-based
Procedure: In this assay, the growth inhibitory activity of a test substance in a human stomach cancer cell line harboring FGFR2 gene amplification is measured.
Then, 10 μL of Cell Counting Kit-8 (Dojindo Laboratories, CK04) was added to each well, and the resultant was incubated for 1 to 2 hours in a 5% CO2 incubator (37° C.) to cause a color reaction. The absorbance value was measured with ENVISION™ (PerkinElmer Co., Ltd.) at 450 nm.

[4] = Homo sapiens, HUVEC, 72 h, read-out: HUVEC (IC50 (nM)), growth in the presence of VEGF 10 ng/mL, 3 days
[5] = Homo sapiens, SNU-16, 72 h, read-out: SNU-16 (IC50 (nM)), cell growth, 3 days, Cell Counting Kit-8
[6] = read-out: HUVEC (IC50 (nM)), growth in the presence of VEGF 10 ng/mL, 3 days
[7] = read-out: SNU-16 (IC50 (nM)), cell growth, 3 days, Cell Counting Kit-8

Compound | T/C (%) ([1]; 25 mg/kg) | IC50 [2, 4] | IC50 [3, 5] | other results
CNC(=O)n1ccc2cc(Oc3ccnc(NC(=O)c4ccc(C5CCN(CCO)CC5)cc4)c3)c(OC)cc21 [Example 3, 5-((2-(4-(1-(2-Hydroxyethyl)piperidin-4-yl)benzamide)pyridin-4-yl)oxy)-6-methoxy-N-methyl-1H-indole-1-carboxamide] | 19% | – | – | T/C (%) ([1]; 6.25 mg/kg): 45%; T/C (%) ([1]; 12.5 mg/kg): 27%
CNC(=O)n1ccc2cc(Oc3ccnc(NC(=O)c4ccc(C5CCN(C[C@H](C)O)CC5)cc4)c3)c(OC)cc21 [Example 4, (S)-5-((2-(4-(1-(2-Hydroxypropyl)piperidin-4-yl)benzamide)pyridin-4-yl)oxy)-6-methoxy-N-methyl-1H-indole-1-carboxamide] | 15% | – | – | T/C (%) ([1]; 6.25 mg/kg): 40%; T/C (%) ([1]; 12.5 mg/kg): 27%
CNC(=O)n1ccc2cc(Oc3ccnc(NC(=O)c4ccc(CN5CCC(O)CC5)cc4)c3)c(OC)cc21 [Example 9, 5-((2-(4-((4-Hydroxypiperidin-1-yl)methyl)benzamide)pyridin-4-yl)oxy)-6-methoxy-N-methyl-1H-indole-1-carboxamide] | 55% | – | – | T/C (%) ([1]; 50 mg/kg): 39%; T/C (%) ([1]; 100 mg/kg): 30%
CCOCCOc1cc2c(ccn2C(=O)NC)cc1Oc1ccnc(NC(=O)c2ccc(C3CCN(CCO)CC3)cc2)c1 [Example 25, 6-(2-Ethoxyethoxy)-5-((2-(4-(1-(2-hydroxyethyl)piperidin-4-yl)benzamide)pyridin-4-yl)oxy)-N-methyl-1H-indole-1-carboxamide] | 14% | 191 nM | 3.8 nM | T/C (%) ([1]; 6.25 mg/kg): 31%; T/C (%) ([1]; 12.5 mg/kg): 23%; T/C (%) ([1]; 50 mg/kg): 12%
CCOCCOc1cc2c(ccn2C(=O)NC)cc1Oc1ccnc(NC(=O)c2ccc(C3CN(CC)C3)cc2)c1 [Example 26, 6-(2-Ethoxyethoxy)-5-((2-(4-(1-ethylazetidin-3-yl)benzamide)pyridin-4-yl)oxy)-N-methyl-1H-indole-1-carboxamide] | 22% | 258 nM | 5.6 nM | T/C (%) ([1]; 6.25 mg/kg): 45%; T/C (%) ([1]; 12.5 mg/kg): 36%; T/C (%) ([1]; 50 mg/kg): 27%
CCN1CC(c2ccc(C(=O)Nc3cc(Oc4cc5ccn(C(=O)NC)c5cc4OCCOC)ccn3)cc2)C1 [Example 89] | – | 416 nM | 6.5 nM | –
CNC(=O)n1ccc2cc(Oc3ccnc(NC(=O)c4ccc(C5CCN(C[C@@H](C)O)CC5)cc4)c3)c(OCCOC)cc21 [Example 90] | – | 203 nM | 6.1 nM | –
CNC(=O)n1ccc2cc(Oc3ccnc(NC(=O)c4ccc(C5CCN(C[C@H](C)O)CC5)cc4)c3)c(OCCOC)cc21 [Example 91] | – | 191 nM | 5.3 nM | –
CCN1CCC(c2ccc(C(=O)Nc3cc(Oc4cc5ccn(C(=O)NC)c5cc4OCCOC)ccn3)cc2)CC1 [Example 92] | – | 182 nM | 5.8 nM | –
CNC(=O)n1ccc2cc(Oc3ccnc(NC(=O)c4ccc(CN5CCC(O)CC5)cc4)c3)c(OCCOC)cc21 [Example 93] | – | 887 nM | 17.6 nM | –
CCOCCOc1cc2c(ccn2C(=O)NC)cc1Oc1ccnc(NC(=O)c2ccc(C3CCN(C(C)C)CC3)nc2)c1 [Example 94] | – | 607 nM | 7.9 nM | –
CCOCCOc1cc2c(ccn2C(=O)NC)cc1Oc1ccnc(NC(=O)c2ccc(CN3CCC[C@@H]3CO)s2)c1 [Example 98] | – | 228 nM | 6.3 nM | –
CCOCCOc1cc2c(ccn2C(=O)NC)cc1Oc1ccnc(NC(=O)c2ccc(CN3CCC[C@H]3CO)s2)c1 [Example 99] | – | 224 nM | 6.3 nM | –
CCOCCOc1cc2c(ccn2C(=O)NC)cc1Oc1ccnc(NC(=O)c2ccc(CN3CC[C@@H](O)C3)s2)c1 [Example 100] | – | – | – | IC50 [2, 6]: 207 nM; IC50 [3, 7]: 5.8 nM
CCOCCOc1cc2c(ccn2C(=O)NC)cc1Oc1ccnc(NC(=O)c2ccc(CN3CCC(O)CC3)s2)c1 [Example 101] | – | 182 nM | 6.8 nM | –
CCOCCOc1cc2c(ccn2C(=O)NC)cc1Oc1ccnc(NC(=O)c2ccc(C3CN(C)C3)cc2)c1 [Example 102] | – | – | – | IC50 [2, 6]: 226 nM; IC50 [3, 7]: 3.7 nM
